Data reported in the supplement of paper PMC10307832.

Experiments:
Experiment in all cases: relative viability (nuclei count vs DMSO), 5 days (fraction); higher = more cells survive
[1] = compound: Cc1cnc(CNC(=O)c2c(=O)c3ccc(N4CCCN(C)CC4)nc3n3c2sc2ccccc23)cn1 [CX-5461] + CC(=O)Nc1cccc(-n2c(=O)n(C3CC3)c(=O)c3c(Nc4ccc(I)cc4F)n(C)c(=O)c(C)c32)c1 [Trametinib] (partner 0.02 µM)
In short: (§1)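 Values are medians from duplicate plates. Each reflects relative viability, defined as the nuclei count of treated wells over that of vehicle wells. Lung cancer cell lines in 1536-well plates were pin-tool dosed one day after seeding with one drug alone or with a fixed anchor-drug dose plus five library-drug doses (not always all listed) in √10 steps, then fixed, stained and imaged at 4× after 5 days.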

[2] = compound: Cc1cnc(CNC(=O)c2c(=O)c3ccc(N4CCCN(C)CC4)nc3n3c2sc2ccccc23)cn1 [CX-5461] + Cc1nc(NC(=O)N2CCC[C@H]2C(N)=O)sc1-c1ccnc(C(C)(C)C(F)(F)F)c1 [Alpelisib] (partner 2 µM)
In short: as §1

[3] = compound: Cc1cnc(CNC(=O)c2c(=O)c3ccc(N4CCCN(C)CC4)nc3n3c2sc2ccccc23)cn1 [CX-5461] + N=C(N)NC(=N)NCCc1ccccc1 [Phenformin] (partner 250 µM)
In short: as §1

[4] = compound: O=C(Nc1cc(C(F)(F)F)cc(C(F)(F)F)c1)c1cc(Cl)ccc1O [IMD-0354] + O=C(CCCCCCC(=O)Nc1ccccc1)NO [Vorinostat] (partner 1 µM)
In short: as §1

Cell Line | relative viability ([1]; first compound 0.01 µM) | relative viability ([1]; first compound 0.03162 µM) | relative viability ([1]; first compound 0.1 µM) | relative viability ([1]; first compound 0.3162 µM) | relative viability ([1]; first compound 1 µM) | relative viability ([2]; first compound 0.01 µM) | relative viability ([2]; first compound 0.03162 µM) | relative viability ([2]; first compound 0.1 µM) | relative viability ([2]; first compound 0.3162 µM) | relative viability ([2]; first compound 1 µM) | relative viability ([3]; first compound 0.01 µM) | relative viability ([3]; first compound 0.03162 µM) | relative viability ([3]; first compound 0.1 µM) | relative viability ([3]; first compound 0.3162 µM) | relative viability ([3]; first compound 1 µM) | relative viability ([4]; first compound 0.04 µM) | relative viability ([4]; first compound 0.1265 µM) | relative viability ([4]; first compound 0.4 µM) | relative viability ([4]; first compound 1.265 µM) | relative viability ([4]; first compound 4 µM)
201T | 0.706 | 0.73 | 0.693 | 0.75 | 0.721 | 1.01 | 1.05 | 1.01 | 1.03 | 1 | 0.468 | 0.431 | 0.464 | 0.441 | 0.388 | 0.958 | 1.07 | 0.813 | 0.537 | 0.31
A549 |  |  |  |  |  | 0.771 | 0.561 |  | 0.508 | 0.0561 | 0.155 | 0.165 | 0.104 | 0.0393 | 0.0272 |  |  |  |  | 
A-427 | 0.815 | 0.798 | 0.661 | 0.488 | 0.578 | 1.08 | 1.16 | 1.17 |  | 1.06 | 0.338 | 0.348 | 0.36 |  | 0.223 | 0.891 | 0.855 | 0.397 | 0.164 | 0.162
ABC-1 |  |  |  |  |  | 1.12 | 0.916 |  | 1.09 | 0.751 | 0.23 | 0.212 | 0.213 |  | 0.212 | 1.1 | 1.22 | 0.575 |  | 0.443
BEN | 0.936 | 0.96 | 1.11 | 1.17 | 1.04 | 1.14 | 1.04 | 1.14 | 1.07 | 0.92 | 0.28 | 0.263 | 0.253 | 0.28 | 0.268 | 0.586 | 0.667 | 0.48 | 0.441 | 0.391
CAL-12T | 0.367 | 0.297 | 0.302 | 0.344 | 0.181 | 1.25 | 1.17 |  | 1.37 | 0.546 | 0.643 | 0.653 | 0.328 | 0.531 | 0.35 | 1.1 | 0.912 | 0.411 | 0.25 | 0.227
COR-L23 | 0.779 | 0.727 | 0.556 | 0.435 | 0.366 | 0.81 | 0.921 | 0.649 | 0.725 | 0.342 | 0.472 | 0.431 | 0.414 | 0.426 | 0.301 | 0.419 | 0.466 | 0.403 | 0.0935 | 0.149
COR-L 105 | 0.448 | 0.47 | 0.429 | 0.388 | 0.352 | 1.14 | 0.942 | 1.26 | 0.851 | 0.414 | 0.496 | 0.557 | 0.414 | 0.405 | 0.306 | 0.863 | 0.771 | 0.672 | 0.679 | 0.378
Calu-6 |  |  |  |  |  | 0.984 | 1.15 | 0.916 | 1.07 | 0.304 |  |  |  |  |  |  |  |  |  | 
ChaGo-K-1 | 0.875 | 0.978 | 0.874 | 0.922 | 0.849 |  |  |  |  |  | 0.512 | 0.527 | 0.474 | 0.299 | 0.268 | 0.851 | 0.741 | 0.519 | 0.244 | 0.255
EBC-1 |  |  |  |  |  | 0.899 | 0.943 | 0.75 | 0.775 | 0.425 |  |  |  |  |  |  |  |  |  | 
EKVX | 0.389 | 0.306 | 0.482 |  | 0.265 | 0.93 | 0.865 | 0.902 |  | 0.883 | 0.231 | 0.236 | 0.186 | 0.224 | 0.24 | 0.469 | 0.754 | 0.556 | 0.691 | 0.359
EMC-BAC-2 | 0.91 | 0.888 | 0.629 | 0.45 | 0.429 | 0.752 | 0.833 | 0.782 | 0.698 | 0.717 | 0.507 | 0.518 | 0.399 | 0.299 | 0.271 | 0.547 | 0.473 | 0.419 |  | 0.439
EPLC-272H | 0.27 | 0.308 | 0.268 |  | 0.318 | 0.974 | 1.06 | 0.961 |  | 0.876 | 0.278 | 0.299 | 0.264 |  | 0.361 | 0.285 | 0.463 | 0.754 | 0.172 | 0.338
H3255 | 0.614 | 0.639 | 0.671 |  | 0.558 | 0.763 | 0.819 | 0.727 | 0.403 | 0.73 | 0.373 | 0.367 | 0.374 | 0.301 | 0.338 | 0.743 | 0.796 | 0.587 | 0.43 | 0.288
HARA | 0.545 | 0.772 | 0.573 | 0.661 | 0.644 | 0.926 | 0.84 | 0.865 | 0.73 | 0.799 | 0.416 | 0.414 | 0.48 |  | 0.353 | 0.562 | 0.507 | 0.355 | 0.265 | 0.072
HCC-15 | 0.419 | 0.31 | 0.383 | 0.376 | 0.34 | 0.937 | 0.905 | 0.91 | 0.89 | 0.779 | 0.514 | 0.53 | 0.372 | 0.467 | 0.163 | 0.931 | 0.799 | 0.516 | 0.327 | 0.2
HCC-44 | 0.921 | 1.25 | 1.11 | 1.14 | 1.05 | 0.752 | 0.991 | 0.839 | 0.827 | 0.753 | 0.179 | 0.205 | 0.145 | 0.229 | 0.136 | 1.03 | 1.05 | 1.07 | 0.873 | 0.364
HCC-78 | 0.76 | 0.82 | 0.88 | 0.753 | 0.71 | 0.338 | 0.328 | 0.348 | 0.263 | 0.334 | 0.729 | 0.66 | 0.764 | 0.783 | 0.55 | 0.406 | 0.378 | 0.405 | 0.407 | 0.31
